# Reference: PubChem BioAssay (NCI)
#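 Cultured in 96-well plates, cells were exposed to test compound for 48 hours across five concentrations. The concentration for 50% growth inhibition is given as GI50. TGI denotes the concentration required for complete inhibition of growth.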
# What was measured:
# Assay in all cases: inhibition of tumour cell growth, NCI panel, 48 h
# M14 melanoma = tested on: M14 melanoma
# CCRF-CEM leukemia = tested on: CCRF-CEM leukemia
# A498 renal = tested on: A498 renal
# SF-268 CNS = tested on: SF-268 CNS
# SK-MEL-5 melanoma = tested on: SK-MEL-5 melanoma
# OVCAR-4 ovarian = tested on: OVCAR-4 ovarian
# CAKI-1 renal = tested on: CAKI-1 renal
# NCI-H522 lung = tested on: NCI-H522 lung
# HOP-92 NSCLC = tested on: HOP-92 NSCLC
# OVCAR-8 ovarian = tested on: OVCAR-8 ovarian
# SF-539 CNS = tested on: SF-539 CNS
smiles,measurement,setting,value
CO[C@](C(=O)OC[C@H]1[C@@H](COC(C)=O)[C@@H]2O[C@H]1c1cc3c(cc12)OCO3)(c1ccccc1)C(F)(F)F,TGI,M14 melanoma,> 100 µM
same,TGI,CCRF-CEM leukemia,> 100 µM
same,TGI,A498 renal,> 100 µM
same,TGI,SF-268 CNS,77.1 µM
same,TGI,SK-MEL-5 melanoma,> 100 µM
same,TGI,OVCAR-4 ovarian,> 100 µM
same,TGI,CAKI-1 renal,> 100 µM
same,TGI,NCI-H522 lung,17.2 µM
same,TGI,HOP-92 NSCLC,> 100 µM
COc1cc(/C=C2\CN(S(=O)(=O)c3ccc(C)cc3)C/C(=C\c3cc(CN4CCCC4)c(O)c(OC)c3)C2=O)cc(CN2CCCC2)c1O,GI50,M14 melanoma,1.55 µM
same,TGI,M14 melanoma,3.17 µM
same,GI50,OVCAR-8 ovarian,0.71 µM
same,TGI,OVCAR-8 ovarian,2.92 µM
same,GI50,CCRF-CEM leukemia,0.0535 µM
same,TGI,CCRF-CEM leukemia,3.74 µM
same,GI50,SF-539 CNS,1.6 µM
same,TGI,SF-539 CNS,3.1 µM
same,GI50,SK-MEL-5 melanoma,1.61 µM
same,TGI,SK-MEL-5 melanoma,2.97 µM
same,GI50,OVCAR-4 ovarian,1.34 µM
same,TGI,OVCAR-4 ovarian,2.69 µM
same,GI50,CAKI-1 renal,1.76 µM
same,TGI,CAKI-1 renal,3.28 µM
same,GI50,NCI-H522 lung,0.433 µM
same,TGI,NCI-H522 lung,2.3 µM
same,GI50,HOP-92 NSCLC,1.15 µM
same,TGI,HOP-92 NSCLC,3.83 µM
Oc1ccc(NCn2c(=S)sc3ccccc32)cc1,TGI,M14 melanoma,> 100 µM
same,TGI,OVCAR-8 ovarian,> 100 µM
same,TGI,CCRF-CEM leukemia,92 µM
same,TGI,A498 renal,> 100 µM
same,TGI,SF-268 CNS,> 100 µM
same,TGI,SF-539 CNS,> 100 µM
same,TGI,SK-MEL-5 melanoma,> 100 µM
same,TGI,OVCAR-4 ovarian,> 100 µM
same,TGI,CAKI-1 renal,> 100 µM
same,TGI,NCI-H522 lung,40.5 µM
same,TGI,HOP-92 NSCLC,> 100 µM
CON(C)C(=O)C(Cc1ccccc1)NC(=O)OCc1ccccc1 (stereo not given),TGI,M14 melanoma,> 100 µM
same,TGI,OVCAR-8 ovarian,> 100 µM
same,TGI,CCRF-CEM leukemia,> 100 µM
same,TGI,A498 renal,> 100 µM
same,TGI,SF-268 CNS,> 100 µM
same,TGI,SF-539 CNS,> 100 µM
same,TGI,SK-MEL-5 melanoma,> 100 µM
same,TGI,OVCAR-4 ovarian,> 100 µM
same,TGI,CAKI-1 renal,> 100 µM
same,TGI,NCI-H522 lung,> 100 µM
same,TGI,HOP-92 NSCLC,> 100 µM
CCOC(=O)c1csc(NC(=O)CN2CCCC2)n1,TGI,M14 melanoma,> 100 µM
same,TGI,OVCAR-8 ovarian,> 100 µM
same,TGI,CCRF-CEM leukemia,> 100 µM
same,TGI,A498 renal,> 100 µM
same,TGI,SF-268 CNS,> 100 µM
same,TGI,SF-539 CNS,> 100 µM
same,TGI,SK-MEL-5 melanoma,> 100 µM
same,TGI,OVCAR-4 ovarian,> 100 µM
same,TGI,CAKI-1 renal,> 100 µM
same,TGI,HOP-92 NSCLC,> 100 µM
O=C(CC1Sc2ccccc2NC1=O)Nc1ccccc1[N+](=O)[O-] (stereo not given),TGI,M14 melanoma,> 100 µM
same,TGI,OVCAR-8 ovarian,> 100 µM
same,TGI,CCRF-CEM leukemia,> 100 µM
same,TGI,A498 renal,> 100 µM
same,TGI,SF-268 CNS,> 100 µM
same,TGI,SF-539 CNS,> 100 µM
same,TGI,SK-MEL-5 melanoma,> 100 µM
same,TGI,OVCAR-4 ovarian,> 100 µM
same,TGI,CAKI-1 renal,> 100 µM
same,TGI,NCI-H522 lung,32.8 µM
same,TGI,HOP-92 NSCLC,> 100 µM
CC1NC(=O)C(C)C(c2ccccc2)N(N=O)C1c1ccccc1 (stereo not given),TGI,OVCAR-8 ovarian,> 100 µM
same,TGI,CCRF-CEM leukemia,> 100 µM
same,TGI,A498 renal,> 100 µM
same,TGI,SF-268 CNS,> 100 µM
same,TGI,SF-539 CNS,> 100 µM
same,TGI,SK-MEL-5 melanoma,> 100 µM
same,TGI,OVCAR-4 ovarian,97.1 µM
same,TGI,CAKI-1 renal,> 100 µM
same,TGI,NCI-H522 lung,> 100 µM
same,TGI,HOP-92 NSCLC,> 100 µM
